Tests used:
[1] = test system: Trypanosoma brucei; assay: Inhibition of Trypanosoma brucei GalE at 50 uM
[2] = test system: CHO-K1; assay: Cytotoxicity against CHO-K1 cells by Alamar blue assay; type: cell-based; details: Cricetulus griseus
[3] = biological target: T1, UDP-glucose 4-epimerase (Homo sapiens, UniProt Q14376); assay: Inhibition of human GalE by HPAEC assay
T1 sequence (Q14376 whole entry): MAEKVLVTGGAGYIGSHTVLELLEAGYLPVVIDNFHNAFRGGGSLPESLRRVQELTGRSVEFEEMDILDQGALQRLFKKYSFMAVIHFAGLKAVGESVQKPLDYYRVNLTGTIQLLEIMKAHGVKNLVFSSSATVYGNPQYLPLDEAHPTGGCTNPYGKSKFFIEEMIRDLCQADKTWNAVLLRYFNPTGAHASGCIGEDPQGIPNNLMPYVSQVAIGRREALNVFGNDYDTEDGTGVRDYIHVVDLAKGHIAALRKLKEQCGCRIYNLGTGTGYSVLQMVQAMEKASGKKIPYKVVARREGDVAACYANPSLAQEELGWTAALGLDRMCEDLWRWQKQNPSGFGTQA

[4] = Inhibition of Trypanosoma brucei GalE by HPAEC assay
[5] = test system: Trypanosoma brucei; assay: Cytotoxicity against Trypanosoma brucei by Alamar blue assay; type: organism-based
[6] = Inhibition of Trypanosoma brucei GalE after 1 hr by HPAEC assay

O=C(NCCSSCCNC(=O)/C(Cc1ccc(O)c(Br)c1)=N/O)/C(Cc1ccc(O)c(Br)c1)=N/O [PSAMMAPLIN A]
inhibition [1]: > 75%
EC50 [2]: 0.9 µM
IC50 [3]: 3.6 µM
IC50 [4]: 15 µM
EC50 [5]: 2.6 µM

CC/C(=C(/CC)c1ccc(O)cc1)c1ccc(O)cc1 [DIETHYLSTILBESTROL]
inhibition [1]: > 75%
EC50 [2]: 8.5 µM
IC50 [3]: 75 µM
IC50 [4]: 17 µM
EC50 [5]: 2.8 µM

C=C(CC)C(=O)c1ccc(OCC(=O)O)c(Cl)c1Cl [ETHACRYNIC ACID]
inhibition [1]: > 75%
EC50 [2]: 56 µM
IC50 [3]: 14 µM
IC50 [4]: 3.1 µM
EC50 [5]: 3.3 µM

O=c1c2ccccc2[se]n1-c1ccccc1 [EBSELEN]
inhibition [1]: > 75%
EC50 [2]: 6.1 µM
IC50 [3]: 0.014 µM
IC50 [4]: 0.62 µM
EC50 [5]: 4.1 µM

Clc1cc(Cl)c(OCC#CI)cc1Cl [HALOPROGIN]
inhibition [1]: > 75%
IC50 [6]: > 100 µM
EC50 [2]: 0.6 µM
IC50 [3]: 0.5 µM
EC50 [5]: 0.3 µM

— ChEMBL document CHEMBL1139726, “Identification of novel inhibitors of UDP-Glc 4'-epimerase, a validated drug target for african sleeping sickness” (Bioorg Med Chem Lett, 2006)
